From patent publication US8735417B2, “Aminopyrimidines as Syk inhibitors” (Merck Sharp & Dohme Corp., priority 2009, dated 2014)

Target: T1, recombinant human GST-SYK (Homo sapiens, UniProt P43405)
T1 construct: purchased Carna Biosciences 08-176
Test: Homogeneous Time-Resolved Fluorescence (HTRF) assay for the recombinant human SYK enzyme
Assay type: biochemical
Conditions: recombinant human GST-SYK 5 pM, ATP 25 μM, 10-dose titration; read-out: rhSYK Activity (IC50)
Method in brief: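 GST-hSYK (5 pM) preincubated 10 min at room temperature with inhibitor (0.1% DMSO) in Tris pH 7.5 buffer; reaction started with 250 nM biotinylated peptide, 5 mM Mg and 25 μM ATP, 45 min. EDTA quench with Eu-anti-phosphotyrosine antibody and SA-APC; HTRF read after 30 min.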

With `Cc1cc(Nc2ncc(F)c(OC3CCOC3)n2)cc(-c2cnc(N3CCCNC(=O)C3)s2)c1` (stereo not shown) [Example 216, 4-[5-(3-{[5-fluoro-4-(tetrahydrofuran-3-yloxy)pyrimidin-2-yl]amino}-5-methylphenyl)-1,3-thiazol-2-yl]-1,4-diazepan-2-one] as the compound, how does the IC50 read?
Its IC50 is 100 to 1000 nM.

With `CCCCSc1ccnc(Nc2cc(C)cc(-c3cnc(N4CCCNC(=O)C4)s3)c2)n1` [Example 217, 4-[5-(3-{[4-(butylsulfanyl)pyrimidin-2-yl]amino}-5-methyphenyl)-1,3-thiazol-2-yl]-1,4-diazepan-2-one] as the compound, how does the IC50 read?
Its IC50 is ≤ 100 nM.

With `Cc1cc(Nc2nccc(OCCO)n2)cc(-c2cnc(N3CCCNC(=O)C3)s2)c1` [Example 218] as the compound, how does the IC50 read?
The IC50 was ≤ 100 nM.

With `Cc1cc(Nc2nccc(SC(C)C)n2)cc(-c2cnc(N3CCCNC(=O)C3)s2)c1` [Example 219] as the compound, how does the IC50 read?
Its IC50 is ≤ 100 nM.

For `CCCSc1ccnc(Nc2cc(C)cc(-c3cnc(N4CCCNC(=O)C4)s3)c2)n1` [Example 220], which IC50 is on record?
Its IC50 is ≤ 100 nM.

With `CCSc1ccnc(Nc2cc(C)cc(-c3cnc(N4CCCNC(=O)C4)s3)c2)n1` [Example 221] as the compound, how does the IC50 read?
Its IC50 is ≤ 100 nM.

With `Cc1cc(Nc2nccc(SCCO)n2)cc(-c2cnc(N3CCCNC(=O)C3)s2)c1` [Example 222, 4-{5-[3-({4-[(2-hydroxyethyl)sulfanyl]pyrimidin-2-yl}amino)-5-methylphenyl]-1,3-thiazol-2-yl}-1,4-diazepan-2-one] as the compound, how does the IC50 read?
Its IC50 is ≤ 100 nM.

For `Cc1cc(Nc2nccc([S+](C)[O-])n2)cc(-c2cnc(N3CCCNC(=O)C3)s2)c1` (stereo not shown) [Example 223, 4-[5-(3-methyl-5-{[4-(methylsulfinyl)pyrimidin-2-yl]amino}phenyl)-1,3-thiazol-2-yl]-1,4-diazepan-2-one], which IC50 is on record?
Its IC50 is ≤ 100 nM.

Which IC50 does the source give for `Cc1cc(Nc2nccc(C(F)(F)F)n2)cc(-c2csc(N3CCC(O)CC3)n2)c1` [Example 225, 1-[4-(3-methyl-5-{[4-(trifluoromethyl)pyrimidin-2-yl]amino}phenyl)-1,3-thiazol-2-yl]piperidin-4-ol] here?
The IC50 was 100 to 1000 nM.

With `Cc1cc(Nc2nccc(C(F)(F)F)n2)cc(-c2cnc(N3CCCNC(=O)C3)s2)c1` [Example 226, 4-[5-(3-methyl-5-{[4-(trifluoromethyl)pyrimidin-2-yl]amino}phenyl)-1,3-thiazol-2-yl]-1,4-diazepan-2-one] as the compound, how does the IC50 read?
Its IC50 is ≤ 100 nM.

For `COc1ccnc(Nc2cc(C)cc(-c3sc(N4CCCNC(=O)C4)nc3Cl)c2)n1` [Example 227, 4-(4-chloro-5-{3-[(4-methoxypyrimidin-2-yl)amino]-5-methylphenyl}-1,3-thiazol-2-yl)-1,4-diazepan-2-one], which IC50 is on record?
Its IC50 is ≤ 100 nM.

Which IC50 does the source give for `Cc1cc(Nc2nccc(C(F)(F)F)n2)cc(-c2sc(N3CCCNC(=O)C3)nc2Cl)c1` [Example 228, 4-[4-chloro-5-(3-methyl-5-{[4-(trifluoromethyl)pyrimidin-2-yl]amino}phenyl)-1,3-thiazol-2-yl]-1,4-diazepan-2-one] here?
Its IC50 is ≤ 100 nM.

For `O=C(O)C1CCN(c2nc(-c3cccc(Nc4nccc(C(F)(F)F)n4)c3)cs2)CC1` [Example 229, 1-[4-(3-{[4-(trifluoromethyl)pyrimidin-2-yl]amino}phenyl)-1,3-thiazol-2-yl]piperidine-4-carboxylic acid], which IC50 is on record?
Its IC50 is 100 to 1000 nM.

With `NC(=O)C1CCN(c2nc(-c3cccc(Nc4nccc(C(F)(F)F)n4)c3)cs2)CC1` [Example 230, 1-[4-(3-{[4-(trifluoromethyl)pyrimidin-2-yl]amino}phenyl)-1,3-thiazol-2-yl]piperidine-4-carboxamide] as the compound, how does the IC50 read?
The IC50 was 100 to 1000 nM.

With `Cc1ccnc(Nc2cccc(-c3csc(N4CCC(C(=O)O)CC4)n3)c2)n1` [Example 231, 1-(4-{3-[(4-methylpyrimidin-2-yl)amino]phenyl}-1,3-thiazol-2-yl)piperidine-4-carboxylic acid] as the compound, how does the IC50 read?
Its IC50 is 100 to 1000 nM.

For `Cc1ccnc(Nc2cccc(-c3csc(N4CCC(C(N)=O)CC4)n3)c2)n1` [Example 232], which IC50 is on record?
The IC50 was 100 to 1000 nM.

System: allergic rhinitis
Test: not given
Conditions: dosed intranasally, phase I/II study; cited from earlier work

Which clinical safety does the source give for `Oc1cccc(Nc2ncc(F)c(Nc3cccc(O)c3)n2)c1` [Example R112] here?
Its clinical safety is “safe across a range of indicators”.

And the “decrease in PGD2” value?
The value was “statistically significant decrease”.

System: allergic rhinitis
Test: not given
Conditions: phase II clinical trial; cited from earlier work

With `Oc1cccc(Nc2ncc(F)c(Nc3cccc(O)c3)n2)c1` [Example R112] as the compound, how does the efficacy versus placebo read?
The efficacy versus placebo was “lack of efficacy versus placebo”.
